What was measured:
Format in all cases: biochemical
PI3K (p110β/p85α) = PI3K (p110β/p85α) (Homo sapiens, UniProt P42338); test: PI3Kβ ADP-Glo kinase assay; conditions: for IC50: read-out: PI3Kβ Enzyme activity IC50
[1] = biological target: recombinant PI3K (p110α/p85α) (Homo sapiens, UniProt P42336); test: PI3Kα ADP-Glo kinase assay; conditions: for IC50: read-out: PI3Kα Enzyme activity IC50
PI3K (p110γ) = PI3K (p110γ) (Homo sapiens, UniProt P48736); test: PI3Kγ ADP-Glo kinase assay; conditions: for IC50: read-out: PI3Kγ Enzyme activity IC50; for inhibition at 0.5 µM: read-out: PI3Kγ max inhibition (%) at 0.5 μM
[2] = biological target: recombinant PI3K (p110δ/p85α) (Homo sapiens, UniProt O00329); test: PI3Kδ ADP-Glo kinase assay; conditions: read-out: PI3Kδ Enzyme activity IC50
Method: Compounds disclosed herein were tested for inhibition of PI3Kδ kinase activity using commercial ADP-Glo™ Kinase Assay (Promega Corporation) and following the manufacture's instruction. Briefly, recombinant PI3K (p110δ/p85α) enzyme, lipid kinase substrate and a serial dilution of compounds disclosed herein were incubated for 0.5 hr at room temperature. ATP was added to initiate the kinase reaction. After incubation for 1 hr at room temperature, ADP-Glo™ reagent was added to terminate the kinase reaction and deplete the remaining ATP. After incubation for 1 hr at room temperature, kinase detection reagent was added to simultaneously convert ADP to ATP and allow the newly synthesized ATP to be measured using a luciferase/luciferin reaction. After incubation for 0.5 hr at room temperature, the luminescence generated was measured on a PHERAstar FS plate reader (BMG LABTECH), The residual enzyme activity in presence of increasing concentrations of compounds was calculated based on the luminescence. The IC50 for each compound was derived from fitting the data to the four-parameter logistic equation by Graphpad Prism software.

PI3K (p110γ), sequence (P48736 whole entry): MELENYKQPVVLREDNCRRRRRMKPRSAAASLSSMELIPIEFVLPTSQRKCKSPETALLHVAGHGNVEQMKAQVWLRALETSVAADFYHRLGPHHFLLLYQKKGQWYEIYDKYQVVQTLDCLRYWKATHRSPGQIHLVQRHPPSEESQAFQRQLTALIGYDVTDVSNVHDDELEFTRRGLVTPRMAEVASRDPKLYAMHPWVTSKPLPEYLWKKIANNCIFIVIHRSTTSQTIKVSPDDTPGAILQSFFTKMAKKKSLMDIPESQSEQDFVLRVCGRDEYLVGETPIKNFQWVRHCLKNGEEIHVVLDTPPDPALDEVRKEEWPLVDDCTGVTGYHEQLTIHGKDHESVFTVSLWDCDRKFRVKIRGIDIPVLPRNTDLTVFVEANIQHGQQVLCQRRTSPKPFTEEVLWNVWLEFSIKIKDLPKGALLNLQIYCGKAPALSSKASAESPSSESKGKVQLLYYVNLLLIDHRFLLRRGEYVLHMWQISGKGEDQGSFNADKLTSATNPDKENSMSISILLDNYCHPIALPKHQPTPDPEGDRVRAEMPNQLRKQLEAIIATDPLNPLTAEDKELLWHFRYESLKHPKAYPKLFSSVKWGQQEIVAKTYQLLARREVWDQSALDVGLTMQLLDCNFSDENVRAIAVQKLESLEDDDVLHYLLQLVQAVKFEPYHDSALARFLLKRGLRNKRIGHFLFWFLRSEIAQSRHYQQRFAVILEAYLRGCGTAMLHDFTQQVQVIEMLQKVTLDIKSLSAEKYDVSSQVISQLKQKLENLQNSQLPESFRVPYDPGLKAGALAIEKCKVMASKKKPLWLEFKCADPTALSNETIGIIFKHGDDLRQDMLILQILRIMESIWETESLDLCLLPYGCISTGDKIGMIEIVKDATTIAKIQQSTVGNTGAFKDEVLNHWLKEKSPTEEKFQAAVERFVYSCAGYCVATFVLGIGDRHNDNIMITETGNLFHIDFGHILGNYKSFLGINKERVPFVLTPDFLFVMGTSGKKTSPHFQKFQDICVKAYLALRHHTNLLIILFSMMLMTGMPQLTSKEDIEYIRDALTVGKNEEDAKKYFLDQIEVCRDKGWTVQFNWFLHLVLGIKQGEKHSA
recombinant PI3K (p110δ/p85α), sequence (O00329 whole entry): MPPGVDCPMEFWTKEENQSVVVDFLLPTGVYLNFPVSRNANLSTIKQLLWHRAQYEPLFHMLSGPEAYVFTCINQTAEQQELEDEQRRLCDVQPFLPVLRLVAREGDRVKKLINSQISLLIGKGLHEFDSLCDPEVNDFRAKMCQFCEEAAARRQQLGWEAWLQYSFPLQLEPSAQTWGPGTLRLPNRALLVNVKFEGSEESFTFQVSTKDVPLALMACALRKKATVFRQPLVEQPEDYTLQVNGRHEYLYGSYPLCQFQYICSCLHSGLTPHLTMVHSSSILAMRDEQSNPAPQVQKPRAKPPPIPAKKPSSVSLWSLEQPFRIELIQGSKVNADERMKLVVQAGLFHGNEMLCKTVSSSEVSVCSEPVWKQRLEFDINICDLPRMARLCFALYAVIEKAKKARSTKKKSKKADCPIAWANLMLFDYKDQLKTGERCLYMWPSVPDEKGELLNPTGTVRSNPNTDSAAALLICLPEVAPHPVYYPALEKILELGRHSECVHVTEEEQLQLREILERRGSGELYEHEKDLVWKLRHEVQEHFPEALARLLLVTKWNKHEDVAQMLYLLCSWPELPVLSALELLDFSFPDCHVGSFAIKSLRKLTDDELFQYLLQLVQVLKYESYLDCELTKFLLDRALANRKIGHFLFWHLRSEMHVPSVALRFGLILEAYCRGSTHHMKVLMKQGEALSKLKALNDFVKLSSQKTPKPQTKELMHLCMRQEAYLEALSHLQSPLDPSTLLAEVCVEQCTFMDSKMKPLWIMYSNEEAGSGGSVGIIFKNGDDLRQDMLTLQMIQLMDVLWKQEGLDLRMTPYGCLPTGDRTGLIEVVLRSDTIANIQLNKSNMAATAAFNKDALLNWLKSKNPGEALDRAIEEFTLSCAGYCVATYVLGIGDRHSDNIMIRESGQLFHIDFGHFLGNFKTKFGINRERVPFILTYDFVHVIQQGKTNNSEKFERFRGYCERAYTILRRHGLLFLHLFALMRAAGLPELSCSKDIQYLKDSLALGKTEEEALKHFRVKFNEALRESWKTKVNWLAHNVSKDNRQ
recombinant PI3K (p110δ/p85α), sequence (P27986 whole entry partner): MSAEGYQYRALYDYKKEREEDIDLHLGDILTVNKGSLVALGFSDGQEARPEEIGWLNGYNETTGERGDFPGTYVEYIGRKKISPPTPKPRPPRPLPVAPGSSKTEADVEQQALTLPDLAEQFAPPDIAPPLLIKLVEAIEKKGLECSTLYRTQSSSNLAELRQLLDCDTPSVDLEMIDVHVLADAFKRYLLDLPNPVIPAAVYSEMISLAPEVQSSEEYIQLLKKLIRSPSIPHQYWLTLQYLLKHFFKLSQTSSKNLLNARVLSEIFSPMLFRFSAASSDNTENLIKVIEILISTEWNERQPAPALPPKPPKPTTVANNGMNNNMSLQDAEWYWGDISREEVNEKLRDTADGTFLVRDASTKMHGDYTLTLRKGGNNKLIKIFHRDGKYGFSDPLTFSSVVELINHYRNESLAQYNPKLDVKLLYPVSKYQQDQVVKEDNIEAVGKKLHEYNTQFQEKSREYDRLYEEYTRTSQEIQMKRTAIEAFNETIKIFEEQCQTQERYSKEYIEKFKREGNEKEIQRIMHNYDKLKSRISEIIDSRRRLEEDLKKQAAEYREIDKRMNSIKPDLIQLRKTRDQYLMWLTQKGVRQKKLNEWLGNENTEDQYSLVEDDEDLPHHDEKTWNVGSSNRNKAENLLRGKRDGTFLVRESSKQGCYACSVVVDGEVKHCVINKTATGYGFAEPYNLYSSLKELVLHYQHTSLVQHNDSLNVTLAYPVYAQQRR
PI3K (p110β/p85α), sequence (P42338 whole entry): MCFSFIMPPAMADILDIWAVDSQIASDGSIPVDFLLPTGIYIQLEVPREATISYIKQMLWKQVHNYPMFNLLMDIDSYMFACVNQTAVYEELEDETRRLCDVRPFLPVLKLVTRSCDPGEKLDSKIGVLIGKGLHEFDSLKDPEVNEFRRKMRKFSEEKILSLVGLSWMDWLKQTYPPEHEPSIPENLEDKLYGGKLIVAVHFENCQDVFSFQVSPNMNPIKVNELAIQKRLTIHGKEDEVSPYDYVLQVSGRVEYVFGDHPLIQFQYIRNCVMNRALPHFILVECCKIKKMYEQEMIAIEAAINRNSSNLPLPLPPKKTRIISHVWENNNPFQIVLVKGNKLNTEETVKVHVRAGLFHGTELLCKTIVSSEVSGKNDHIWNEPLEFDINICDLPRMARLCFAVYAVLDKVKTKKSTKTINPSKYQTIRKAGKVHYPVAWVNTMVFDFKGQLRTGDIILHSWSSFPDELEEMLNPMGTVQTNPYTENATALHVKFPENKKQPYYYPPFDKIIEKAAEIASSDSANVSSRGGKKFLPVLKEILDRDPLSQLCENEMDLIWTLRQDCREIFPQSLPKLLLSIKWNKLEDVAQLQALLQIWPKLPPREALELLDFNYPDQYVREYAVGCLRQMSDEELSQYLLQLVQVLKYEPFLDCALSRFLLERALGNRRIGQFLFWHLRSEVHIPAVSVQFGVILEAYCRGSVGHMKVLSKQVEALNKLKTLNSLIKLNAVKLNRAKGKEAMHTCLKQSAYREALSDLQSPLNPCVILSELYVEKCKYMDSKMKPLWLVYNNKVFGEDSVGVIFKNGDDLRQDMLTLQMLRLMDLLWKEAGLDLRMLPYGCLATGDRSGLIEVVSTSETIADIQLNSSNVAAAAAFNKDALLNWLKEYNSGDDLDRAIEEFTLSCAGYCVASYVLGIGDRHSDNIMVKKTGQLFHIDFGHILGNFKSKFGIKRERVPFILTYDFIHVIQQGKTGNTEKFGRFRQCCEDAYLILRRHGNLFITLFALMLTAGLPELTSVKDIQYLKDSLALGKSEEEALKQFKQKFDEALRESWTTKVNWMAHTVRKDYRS
PI3K (p110β/p85α), sequence (P27986 whole entry partner): as the sequence (P27986 whole entry partner) above
recombinant PI3K (p110α/p85α), sequence (P42336 whole entry): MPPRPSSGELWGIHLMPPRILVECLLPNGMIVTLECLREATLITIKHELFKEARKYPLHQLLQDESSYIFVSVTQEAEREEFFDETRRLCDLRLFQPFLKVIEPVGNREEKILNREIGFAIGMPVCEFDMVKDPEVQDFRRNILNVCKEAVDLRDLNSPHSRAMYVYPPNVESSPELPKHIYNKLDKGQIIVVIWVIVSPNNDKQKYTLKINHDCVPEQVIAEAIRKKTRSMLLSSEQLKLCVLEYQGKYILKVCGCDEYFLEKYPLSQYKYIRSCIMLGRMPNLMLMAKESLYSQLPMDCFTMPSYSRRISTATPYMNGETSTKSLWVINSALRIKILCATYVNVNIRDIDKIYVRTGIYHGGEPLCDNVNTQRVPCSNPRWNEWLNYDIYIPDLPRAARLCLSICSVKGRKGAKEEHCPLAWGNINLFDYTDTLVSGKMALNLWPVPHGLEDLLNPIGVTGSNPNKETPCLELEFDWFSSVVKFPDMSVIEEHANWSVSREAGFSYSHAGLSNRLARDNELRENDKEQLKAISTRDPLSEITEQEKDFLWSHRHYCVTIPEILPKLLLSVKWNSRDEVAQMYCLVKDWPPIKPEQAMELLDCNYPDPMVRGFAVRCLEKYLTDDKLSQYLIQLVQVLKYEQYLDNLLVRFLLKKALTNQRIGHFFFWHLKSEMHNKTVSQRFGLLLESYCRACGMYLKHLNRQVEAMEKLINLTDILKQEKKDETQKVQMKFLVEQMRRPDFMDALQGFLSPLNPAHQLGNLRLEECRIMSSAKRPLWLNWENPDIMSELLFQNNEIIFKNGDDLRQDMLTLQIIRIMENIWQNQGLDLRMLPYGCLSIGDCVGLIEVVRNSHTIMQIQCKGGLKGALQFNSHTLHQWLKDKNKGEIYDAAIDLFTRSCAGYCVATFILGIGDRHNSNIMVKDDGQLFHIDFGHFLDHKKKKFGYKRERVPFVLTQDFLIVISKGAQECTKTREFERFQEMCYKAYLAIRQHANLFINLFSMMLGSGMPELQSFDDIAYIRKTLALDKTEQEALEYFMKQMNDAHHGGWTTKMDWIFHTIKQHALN
recombinant PI3K (p110α/p85α), sequence (P27986 whole entry partner): as the sequence (P27986 whole entry partner) above

Row | Compound | IC50 (PI3K (p110β/p85α)) | IC50 [1] | IC50 (PI3K (p110γ)) | IC50 [2] | inhibition at 0.5 µM (PI3K (p110β/p85α); read-out: PI3Kβ max inhibition (%) at 0.5 μM) | inhibition at 0.5 µM (PI3K (p110γ)) | inhibition at 0.5 µM ([1]; read-out: PI3Kα max inhibition (%) at 0.5 μM)
1 | CCOc1c(C(C)c2nc(Cl)c3c(N)nccn23)cc(Cl)c(C)c1-c1ccc(OCCOC)nc1 (stereo not drawn) [Compound 31, 1-chloro-3-(1-(5-chloro-2-ethoxy-3-(6-(2-methoxyethoxy)pyridin-3-yl)-4-methylphenyl)ethyl)imidazo[1,5-a]pyrazin-8-amine] | 0.62 µM | 2.2 µM | 0.43 µM | 0.0025 µM | – | – | –
2 | Cc1nc([C@@H](C)c2cc(Cl)c(F)c(-c3ccc(C(=O)N4CC(O)C4)nc3)c2OC(C)C)n2ccnc(N)c12 [Compound 63, (S)-(5-(3-(1-(8-amino-1-methylimidazo[1,5-a]pyrazin-3-yl)ethyl)-5-chloro-6-fluoro-2-isopropoxyphenyl)pyridin-2-yl)(3-hydroxyazetidine-1-yl)methanone] | 2.3 µM | 2.6 µM | 2.4 µM | 0.00056 µM | – | – | –
3 | CC(C)Oc1c(C(C)c2nc(Cl)c3c(N)nccn23)cc(Cl)c(F)c1-c1ccc(C(N)=O)nc1 (stereo not drawn) [Compound 17, 5-(3-(1-(8-amino-1-chloroimidazo[1,5-a]pyrazin-3-yl)ethyl)-5-chloro-6-fluoro-2-isopropoxyphenyl)picolinamide] | 1.6 µM | 3.1 µM | 1.9 µM | 0.0015 µM | – | – | –
4 | Cc1nc([C@@H](C)c2cc(Cl)c(F)c(-c3ccc(C(=O)N4CCC[C@@H]4C(=O)O)nc3)c2OC(C)C)n2ccnc(N)c12 [Compound 69, (5-(3-((S)-1-(8-amino-1-methylimidazo[1,5-a]pyrazin-3-yl)ethyl)-5-chloro-6-fluoro-2-isopropoxyphenyl)picolinoyl)-D-proline] | 0.61 µM | 7.1 µM | 0.62 µM | 0.00071 µM | – | – | –
5 | CC(C)Oc1c(C(C)c2nc(Cl)c3c(N)nccn23)cc(Cl)c(F)c1C1CNC(=O)C1 (stereo not drawn) [Compound 48, 4-(3-(1-(8-amino-1-chloroimidazo[1,5-a]pyrazin-3-yl)ethyl)-5-chloro-6-fluoro-2-isopropoxyphenyl)pyrrolidin-2-one] | 0.58 µM | 0.54 µM | 0.53 µM | 0.00042 µM | – | – | –
6 | CCOc1c([C@H](C)c2nc(Cl)c3c(N)nccn23)cc(Cl)c(F)c1-c1ccc(C(F)(F)F)nc1 [Compound 41A] | 1.2 µM | 2.2 µM | 0.73 µM | 0.0021 µM | – | – | –
7 | Cc1nc(C(C)c2cc(Cl)c(F)c(-c3ccc(C#N)nc3)c2OC(C)C)n2ccnc(N)c12 (stereo not drawn) [Compound 59, 5-(3-(1-(8-amino-1-methylimidazo[1,5-a]pyrazin-3-yl)ethyl)-5-chloro-6-fluoro-2-isopropoxyphenyl)picolinonitrile] | 3.5 µM | 10 µM | 6.3 µM | 0.0025 µM | – | – | –
8 | CC(C)Oc1c([C@H](C)c2nc(Cl)c3c(N)nccn23)cc(Cl)c(F)c1-c1ccc(C(=O)O)nc1 [Compound 18A] | 0.19 µM | 4.6 µM | 0.16 µM | 0.00056 µM | – | – | –
9 | COc1c(C(C)c2nc(Br)c3c(N)nccn23)cc(Cl)c(C)c1-c1ccc(Cl)nc1 (stereo not drawn) [Compound 22, 1-bromo-3-(1-(5-chloro-3-(6-chloropyridin-3-yl)-2-methoxy-4-methylphenyl)ethyl) imidazo[1,5-a]pyrazin-8-amine] | 0.39 µM | 1.4 µM | 0.76 µM | 0.0015 µM | – | – | –
10 | COc1c(C(C)c2ncc3c(N)nccn23)cc(Cl)c(C)c1-c1cccnc1 (stereo not drawn) [Compound 1, 3-(1-(5-chloro-2-methoxy-4-methyl-3-(pyridin-3-yl)phenyl)ethyl)imidazo[1,5-a]pyrazine-8-amine] | – | – | – | 0.15 µM | 6% | -27% | –
11 | COc1c(C(C)c2nc(Br)c3c(N)ncc(Cl)n23)cc(Cl)c(C)c1-c1cccnc1 (stereo not drawn) [Compound 5, 1-bromo-5-chloro-3-(1-(5-chloro-2-methoxy-4-methyl-3-(pyridin-3-yl)phenyl)ethyl) imidazo[1,5-a]pyrazin-8-amine] | – | – | – | 0.018 µM | – | 44% | 19%

Source: US11725012B2, “Imidazo[1,5-a]pyrazine derivatives as PI3K δ inhibitors” (priority 2016, dated 2023)
